The values below come from ChEMBL document CHEMBL1153282, “N-substituted 2'-(aminoaryl)benzothiazoles as kinase inhibitors: hit identification and scaffold hopping” (Bioorg Med Chem Lett, 2009).

What is called IC50 is the concentration needed to halve the response being measured.

The structures appear in SMILES notation.

One test deals with Insulin receptor (Homo sapiens, UniProt P06213). Nature of the test: Inhibition of insulin receptor by virtual HTS assay.
Another test has as its target T1, Aurora kinase A (Homo sapiens, UniProt O14965).
T1 sequence (O14965 whole entry): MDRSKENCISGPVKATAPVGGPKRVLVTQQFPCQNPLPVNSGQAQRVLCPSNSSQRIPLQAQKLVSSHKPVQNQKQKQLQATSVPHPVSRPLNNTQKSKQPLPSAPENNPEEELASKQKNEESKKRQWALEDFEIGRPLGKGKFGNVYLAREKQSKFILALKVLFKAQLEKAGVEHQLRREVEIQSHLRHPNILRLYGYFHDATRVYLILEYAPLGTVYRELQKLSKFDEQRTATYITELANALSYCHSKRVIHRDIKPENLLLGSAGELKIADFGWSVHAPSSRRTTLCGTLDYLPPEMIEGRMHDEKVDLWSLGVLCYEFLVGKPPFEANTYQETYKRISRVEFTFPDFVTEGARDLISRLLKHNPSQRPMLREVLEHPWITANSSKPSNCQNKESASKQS
Description: Inhibition of Aurora A by virtual HTS assay.

The next test deals with Aurora kinase B (Homo sapiens, UniProt Q96GD4). Description: Inhibition of Aurora B by virtual HTS assay.
Test [1] deals with Receptor tyrosine-protein kinase erbB-2 (Homo sapiens, UniProt P04626). Description: Inhibition of ErbB2 by virtual HTS assay.
The target of test [2] is Epidermal growth factor receptor (Homo sapiens, UniProt P00533). Nature of the test: Inhibition of EGFR by virtual HTS assay.
Test [3] deals with Vascular endothelial growth factor receptor 2 (Homo sapiens, UniProt P35968). Nature of the test: Inhibition of VEGFR2 by virtual HTS assay.
In test [4] the target is Vascular endothelial growth factor receptor 3 (Homo sapiens, UniProt P35916).
Description: Inhibition of VEGFR3 by virtual HTS assay
The target of test [5] is Proto-oncogene tyrosine-protein kinase Src (Homo sapiens, UniProt P12931). Nature of the test: Inhibition of Src by virtual HTS assay.
Test [6] concerns the target Insulin-like growth factor 1 receptor (Homo sapiens, UniProt P08069). Description: Inhibition of IGF1R by virtual HTS assay.
For a further test, the target named is Angiopoietin-1 receptor (Homo sapiens, UniProt Q02763). Nature of the test: Inhibition of TIE2 by virtual HTS assay.
A further test has as its target T2, Ephrin type-B receptor 4 (Homo sapiens, UniProt P54760).
T2 sequence (P54760 whole entry): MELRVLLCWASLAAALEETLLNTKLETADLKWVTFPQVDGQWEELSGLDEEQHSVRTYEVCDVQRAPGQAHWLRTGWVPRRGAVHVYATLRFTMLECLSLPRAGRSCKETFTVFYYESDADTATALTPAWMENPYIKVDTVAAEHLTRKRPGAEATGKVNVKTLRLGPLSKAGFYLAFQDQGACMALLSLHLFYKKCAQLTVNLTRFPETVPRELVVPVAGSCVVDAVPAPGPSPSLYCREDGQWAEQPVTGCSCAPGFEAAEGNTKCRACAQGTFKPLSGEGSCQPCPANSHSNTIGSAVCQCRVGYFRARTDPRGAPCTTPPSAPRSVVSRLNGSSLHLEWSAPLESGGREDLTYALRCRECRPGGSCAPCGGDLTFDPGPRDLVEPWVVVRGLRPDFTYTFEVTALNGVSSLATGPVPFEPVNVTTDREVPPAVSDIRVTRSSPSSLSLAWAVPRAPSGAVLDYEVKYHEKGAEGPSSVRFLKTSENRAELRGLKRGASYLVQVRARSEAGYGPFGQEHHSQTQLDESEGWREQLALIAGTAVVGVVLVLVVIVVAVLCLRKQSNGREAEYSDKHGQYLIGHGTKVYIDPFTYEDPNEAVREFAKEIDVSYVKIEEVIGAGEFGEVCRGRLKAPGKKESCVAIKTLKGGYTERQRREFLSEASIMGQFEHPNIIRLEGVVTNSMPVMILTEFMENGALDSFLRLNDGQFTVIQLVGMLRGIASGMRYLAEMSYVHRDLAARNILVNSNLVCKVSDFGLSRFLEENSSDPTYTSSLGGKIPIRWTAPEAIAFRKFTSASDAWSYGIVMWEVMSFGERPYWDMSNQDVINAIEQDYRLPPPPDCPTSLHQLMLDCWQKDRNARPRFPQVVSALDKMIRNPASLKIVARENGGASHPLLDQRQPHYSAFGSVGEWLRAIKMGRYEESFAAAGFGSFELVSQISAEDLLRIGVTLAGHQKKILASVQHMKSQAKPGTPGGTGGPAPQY
Description: Inhibition of EphB4 by virtual HTS assay.

Chain of Aurora kinase B (Q96GD4 whole entry): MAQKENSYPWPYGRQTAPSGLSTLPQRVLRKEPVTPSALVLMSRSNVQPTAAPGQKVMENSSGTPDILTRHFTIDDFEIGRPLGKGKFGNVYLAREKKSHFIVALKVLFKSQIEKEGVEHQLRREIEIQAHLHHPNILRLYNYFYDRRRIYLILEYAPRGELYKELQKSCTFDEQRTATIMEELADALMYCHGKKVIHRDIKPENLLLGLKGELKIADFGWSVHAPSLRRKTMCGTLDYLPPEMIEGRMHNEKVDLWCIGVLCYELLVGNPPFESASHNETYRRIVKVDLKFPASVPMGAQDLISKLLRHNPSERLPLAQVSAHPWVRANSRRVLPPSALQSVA
Chain of Insulin-like growth factor 1 receptor (P08069 31-736 limits assumed): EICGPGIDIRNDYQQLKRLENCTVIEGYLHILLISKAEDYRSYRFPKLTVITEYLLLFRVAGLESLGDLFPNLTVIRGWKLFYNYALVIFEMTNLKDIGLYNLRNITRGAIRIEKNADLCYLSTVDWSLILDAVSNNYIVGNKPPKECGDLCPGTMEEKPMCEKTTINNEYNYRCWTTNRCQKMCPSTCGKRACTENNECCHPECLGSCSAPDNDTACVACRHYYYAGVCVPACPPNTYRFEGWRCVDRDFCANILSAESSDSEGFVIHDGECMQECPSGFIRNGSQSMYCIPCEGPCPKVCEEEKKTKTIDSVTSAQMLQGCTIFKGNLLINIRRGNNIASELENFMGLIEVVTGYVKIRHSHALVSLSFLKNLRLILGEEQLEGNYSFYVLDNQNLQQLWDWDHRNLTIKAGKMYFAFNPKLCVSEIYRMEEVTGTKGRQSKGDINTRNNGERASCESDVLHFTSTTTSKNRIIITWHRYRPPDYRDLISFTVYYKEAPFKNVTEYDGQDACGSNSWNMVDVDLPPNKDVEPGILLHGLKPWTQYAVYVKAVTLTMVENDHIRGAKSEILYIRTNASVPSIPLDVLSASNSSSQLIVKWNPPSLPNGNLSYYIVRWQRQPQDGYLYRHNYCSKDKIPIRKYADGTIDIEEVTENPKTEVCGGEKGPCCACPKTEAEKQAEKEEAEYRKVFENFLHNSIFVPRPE
Chain of Insulin-like growth factor 1 receptor (P08069 741-1367 limits assumed): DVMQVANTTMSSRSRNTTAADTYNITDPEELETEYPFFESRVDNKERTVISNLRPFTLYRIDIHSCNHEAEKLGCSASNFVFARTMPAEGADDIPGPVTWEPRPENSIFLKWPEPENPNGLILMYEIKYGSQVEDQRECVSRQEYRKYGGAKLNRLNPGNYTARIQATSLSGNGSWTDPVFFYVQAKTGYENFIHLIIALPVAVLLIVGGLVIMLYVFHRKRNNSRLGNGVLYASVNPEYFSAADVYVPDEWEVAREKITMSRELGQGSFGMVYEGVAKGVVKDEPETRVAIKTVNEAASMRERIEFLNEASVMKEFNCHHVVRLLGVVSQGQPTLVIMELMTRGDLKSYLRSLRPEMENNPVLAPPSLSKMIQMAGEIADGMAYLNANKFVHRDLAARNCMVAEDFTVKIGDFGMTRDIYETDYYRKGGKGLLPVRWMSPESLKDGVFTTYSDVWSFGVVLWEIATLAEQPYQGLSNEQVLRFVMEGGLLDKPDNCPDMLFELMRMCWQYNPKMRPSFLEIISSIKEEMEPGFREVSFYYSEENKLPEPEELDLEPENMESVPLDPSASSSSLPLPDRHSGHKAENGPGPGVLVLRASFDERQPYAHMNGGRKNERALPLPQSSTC
Chain of Proto-oncogene tyrosine-protein kinase Src (P12931 2-536 limits assumed): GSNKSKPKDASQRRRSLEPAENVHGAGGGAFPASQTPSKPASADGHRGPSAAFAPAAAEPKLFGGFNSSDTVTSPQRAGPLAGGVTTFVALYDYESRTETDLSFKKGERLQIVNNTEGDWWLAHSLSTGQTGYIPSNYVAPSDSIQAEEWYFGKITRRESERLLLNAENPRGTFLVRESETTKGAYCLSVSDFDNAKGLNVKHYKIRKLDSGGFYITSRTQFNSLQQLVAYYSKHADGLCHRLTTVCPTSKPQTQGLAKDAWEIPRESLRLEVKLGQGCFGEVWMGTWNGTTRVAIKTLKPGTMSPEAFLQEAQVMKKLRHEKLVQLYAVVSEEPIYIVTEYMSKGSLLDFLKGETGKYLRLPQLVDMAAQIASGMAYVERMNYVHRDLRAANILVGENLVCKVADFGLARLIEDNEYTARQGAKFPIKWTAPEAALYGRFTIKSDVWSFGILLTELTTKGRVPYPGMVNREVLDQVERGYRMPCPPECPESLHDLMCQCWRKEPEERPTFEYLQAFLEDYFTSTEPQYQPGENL
Chain of Receptor tyrosine-protein kinase erbB-2 (P04626 whole entry): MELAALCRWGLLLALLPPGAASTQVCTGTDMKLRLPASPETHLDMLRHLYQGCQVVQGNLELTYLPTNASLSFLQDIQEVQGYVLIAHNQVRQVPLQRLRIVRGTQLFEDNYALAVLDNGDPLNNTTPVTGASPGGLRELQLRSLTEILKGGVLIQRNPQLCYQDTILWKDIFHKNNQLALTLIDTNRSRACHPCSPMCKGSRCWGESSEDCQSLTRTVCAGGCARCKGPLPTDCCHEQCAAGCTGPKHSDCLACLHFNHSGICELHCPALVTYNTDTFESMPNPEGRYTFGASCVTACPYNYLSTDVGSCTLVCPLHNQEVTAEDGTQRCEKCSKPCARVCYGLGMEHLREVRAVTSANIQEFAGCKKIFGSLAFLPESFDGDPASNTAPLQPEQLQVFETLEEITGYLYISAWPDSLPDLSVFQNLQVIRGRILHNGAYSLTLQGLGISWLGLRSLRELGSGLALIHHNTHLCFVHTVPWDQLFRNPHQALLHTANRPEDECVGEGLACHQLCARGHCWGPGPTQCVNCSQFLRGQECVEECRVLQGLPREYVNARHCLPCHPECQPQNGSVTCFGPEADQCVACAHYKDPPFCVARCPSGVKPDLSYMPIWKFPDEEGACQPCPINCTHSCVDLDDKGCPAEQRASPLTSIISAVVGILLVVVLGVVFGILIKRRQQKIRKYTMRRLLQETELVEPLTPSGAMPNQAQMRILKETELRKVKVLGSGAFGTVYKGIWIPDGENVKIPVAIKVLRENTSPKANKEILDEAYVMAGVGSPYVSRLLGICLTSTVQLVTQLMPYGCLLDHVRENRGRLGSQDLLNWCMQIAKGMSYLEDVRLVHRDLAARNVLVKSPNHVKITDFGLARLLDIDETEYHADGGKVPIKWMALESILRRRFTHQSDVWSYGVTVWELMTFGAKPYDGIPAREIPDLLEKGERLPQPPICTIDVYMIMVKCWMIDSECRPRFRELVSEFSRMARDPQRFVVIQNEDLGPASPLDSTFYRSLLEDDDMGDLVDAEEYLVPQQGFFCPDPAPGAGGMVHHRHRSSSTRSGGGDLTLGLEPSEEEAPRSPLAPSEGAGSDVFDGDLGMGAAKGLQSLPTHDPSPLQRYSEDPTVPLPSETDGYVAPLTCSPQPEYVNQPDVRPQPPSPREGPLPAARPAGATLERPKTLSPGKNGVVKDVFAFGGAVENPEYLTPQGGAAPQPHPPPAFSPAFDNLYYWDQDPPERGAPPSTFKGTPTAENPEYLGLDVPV
Chain of Epidermal growth factor receptor (P00533 whole entry): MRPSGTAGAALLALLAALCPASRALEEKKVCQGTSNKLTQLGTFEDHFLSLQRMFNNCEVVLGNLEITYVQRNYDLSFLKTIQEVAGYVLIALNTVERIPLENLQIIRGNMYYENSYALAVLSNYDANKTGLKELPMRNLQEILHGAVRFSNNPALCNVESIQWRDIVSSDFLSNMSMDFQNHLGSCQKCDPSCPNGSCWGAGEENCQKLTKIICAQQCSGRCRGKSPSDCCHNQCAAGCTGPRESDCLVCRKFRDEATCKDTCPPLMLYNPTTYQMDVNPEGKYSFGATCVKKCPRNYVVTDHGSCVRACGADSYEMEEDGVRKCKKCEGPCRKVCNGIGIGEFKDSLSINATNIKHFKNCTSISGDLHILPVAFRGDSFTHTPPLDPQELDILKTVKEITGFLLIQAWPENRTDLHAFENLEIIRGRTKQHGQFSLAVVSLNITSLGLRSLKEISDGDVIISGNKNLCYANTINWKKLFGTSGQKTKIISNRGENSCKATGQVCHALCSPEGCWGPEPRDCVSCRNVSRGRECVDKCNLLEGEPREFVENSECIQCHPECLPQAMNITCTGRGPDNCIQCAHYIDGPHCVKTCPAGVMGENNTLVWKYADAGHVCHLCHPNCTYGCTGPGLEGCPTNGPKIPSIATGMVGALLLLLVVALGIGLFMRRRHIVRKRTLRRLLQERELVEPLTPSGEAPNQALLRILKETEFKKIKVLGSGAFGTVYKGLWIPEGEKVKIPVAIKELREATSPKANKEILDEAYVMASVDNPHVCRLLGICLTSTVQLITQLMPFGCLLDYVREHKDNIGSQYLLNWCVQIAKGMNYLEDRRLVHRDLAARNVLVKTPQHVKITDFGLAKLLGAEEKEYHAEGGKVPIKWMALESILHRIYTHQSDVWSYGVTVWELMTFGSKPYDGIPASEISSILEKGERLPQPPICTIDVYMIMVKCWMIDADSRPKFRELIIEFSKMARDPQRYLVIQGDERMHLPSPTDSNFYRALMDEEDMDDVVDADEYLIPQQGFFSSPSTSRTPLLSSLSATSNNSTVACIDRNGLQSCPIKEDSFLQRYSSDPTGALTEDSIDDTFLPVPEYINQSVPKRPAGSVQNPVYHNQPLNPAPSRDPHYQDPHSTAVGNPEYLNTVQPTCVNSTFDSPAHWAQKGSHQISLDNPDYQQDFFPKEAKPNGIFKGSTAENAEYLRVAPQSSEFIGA

Regarding `CN1CCN(c2ccnc(Nc3ccc(-c4nc5ccccc5s4)cc3)n2)CC1`, the IC50 was above 10 µM at Insulin receptor; 0.84 µM at Aurora kinase A; above 10 µM at Aurora kinase B; above 10 µM in [1]; above 10 µM in test [2]; above 10 µM in test [3]. For the same compound, in test [4], the IC50 amounted to 5.2 µM.

With `Cc1cc(Nc2ccnc(Nc3ccc(-c4nc5ccccc5s4)cc3)n2)n[nH]1`, the IC50 is above 10 µM on Insulin receptor; 0.37 µM against Aurora kinase A; 7 µM on Aurora kinase B; above 10 µM in [2]; above 10 µM in test [3].

Consider `COc1cc(Nc2nccc(Nc3cc(C)n[nH]3)n2)ccc1-c1nc2ccccc2s1`, for which the IC50 on Insulin receptor was above 10 µM; against Aurora kinase A, 0.32 µM; at Aurora kinase B, 3.1 µM; in [1] it was above 10 µM; in [2], above 10 µM; in [3], above 10 µM. In test [4], this compound returned an IC50 above 10 µM.

As to `Cc1cc(Nc2cc(Nc3ccc(-c4nc5ccccc5s4)cc3)ccn2)[nH]n1`, the half-inhibitory concentration (IC50) against Insulin receptor was above 10 µM; against Aurora kinase A, 1.3 µM; at Aurora kinase B it was 1.8 µM; in test [1], above 10 µM; in test [2], above 10 µM; in test [3], 8.8 µM. In [4], the midpoint of inhibition, the IC50, lay at 6.5 µM.

In the case of `CNc1ccnc(Nc2ccc(-c3nc4ccccc4s3)cc2)n1`, the IC50 against Aurora kinase A was determined as 1.5 µM.

For the compound `CN(C)c1ccnc(Nc2ccc(-c3nc4ccccc4s3)cc2)n1`, the IC50 (on Insulin receptor; on Aurora kinase A; against Aurora kinase B; in test [2]; in test [3]) was above 10 µM throughout.

In the case of `COc1cc(Nc2ncnc3[nH]ccc23)ccc1-c1nc2ccccc2s1`, the IC50 in test [5] is above 10 µM; against Insulin receptor it was above 10 µM; on Aurora kinase A it was above 10 µM; against Aurora kinase B, above 10 µM; in [1], 1.6 µM; in [2] it was 0.72 µM. Further, the IC50 in test [6] is 3.6 µM; in test [3], above 10 µM; against Angiopoietin-1 receptor it was 8.6 µM; in [4], above 10 µM.

`COc1nc(Nc2ccc(-c3nc4ccccc4s3)cc2)c2cc[nH]c2n1`: the concentration for half-maximal inhibition (IC50) was 6.4 µM in [5]; above 10 µM at Insulin receptor; above 10 µM at Aurora kinase A; above 10 µM against Aurora kinase B; above 10 µM in [1]; 4.4 µM in [6]. In addition, the IC50 in test [3] is 10 µM; on Angiopoietin-1 receptor, 8.7 µM; in [4] it was above 10 µM.

Turning to `CNc1cc(Nc2ccc(-c3nc4ccccc4s3)cc2)ccn1`, the IC50 (against Insulin receptor; at Aurora kinase A; on Aurora kinase B; in [1]; in test [2]; in [3]) was above 10 µM in each case. The same compound gave an IC50 in test [4] of 6 µM.

Turning to `CNC(=O)c1cc(Nc2ccc(-c3nc4ccccc4s3)cc2)ccn1`, the IC50 is above 10 µM against Insulin receptor; above 10 µM against Aurora kinase A; above 10 µM against Aurora kinase B; 1.1 µM in test [1]; 2 µM in test [2]; 3.6 µM in test [3]. Moreover, in test [4], the IC50 is above 10 µM.

Consider `c1ccc2sc(-c3ccc(Nc4ncnc5ccsc45)cc3)nc2c1`, for which the IC50 in test [5] was above 10 µM; at Insulin receptor, above 10 µM; at Aurora kinase A it was 2.8 µM; against Aurora kinase B, 0.72 µM; in test [1], above 10 µM; in [2], above 10 µM. The IC50 (in test [6]; in test [3]; against Angiopoietin-1 receptor; in [4]) was above 10 µM in each case.

As to `COc1cc2ncnc(Nc3ccc(-c4nc5ccccc5s4)c(OC)c3)c2cc1OC`, the IC50 was above 10 µM in test [5]; above 10 µM against Insulin receptor; above 10 µM against Aurora kinase A; above 10 µM against Aurora kinase B; 0.063 µM in test [2]; above 10 µM in test [6]. Further, the IC50 (in test [3]; against Ephrin type-B receptor 4) was above 10 µM in each case.

As for `Clc1cc(Nc2ncnc3ccsc23)ccc1-c1nc2ccccc2s1`, the IC50 (in test [5]; on Insulin receptor; against Aurora kinase A; against Aurora kinase B; in test [1]; in test [2]) was above 10 µM in each case. Also, the half-maximal inhibitory concentration (IC50) in [6] was above 10 µM; in test [3], above 10 µM; at Angiopoietin-1 receptor, 4.4 µM; in test [4], above 10 µM.

With `Fc1cc(-c2nc3ccccc3s2)ccc1Nc1ncnc2ccsc12`, the IC50 in test [5] is above 10 µM; against Insulin receptor, above 10 µM; against Aurora kinase A it was 4 µM; on Aurora kinase B it was 0.29 µM; in test [1], above 10 µM; in test [2] it was above 10 µM. The IC50 in test [6] was above 10 µM; in test [3] it was above 10 µM; against Angiopoietin-1 receptor, 4.1 µM; in [4], above 10 µM.

Consider `COc1nc(Nc2ccc(-c3nc4ccccc4s3)c(OC)c2)c2cc[nH]c2n1`, for which the IC50 in test [5] was 2.1 µM; at Insulin receptor, above 10 µM; at Aurora kinase A, above 10 µM; at Aurora kinase B, above 10 µM; in test [1] it was above 10 µM; in test [2], 5.1 µM. In addition, the half-maximal inhibitory concentration (IC50) came to 2.9 µM in test [6], 0.96 µM in test [3], 2.5 µM against Angiopoietin-1 receptor and 7.7 µM in test [4].

On to `COc1cc(Nc2ncnc3nc[nH]c23)ccc1-c1nc2ccccc2s1`, for which the IC50 in [5] is above 10 µM; against Insulin receptor it was above 10 µM; against Aurora kinase A, 5.8 µM; on Aurora kinase B, above 10 µM; in test [1], above 10 µM; in [2] it was 2.6 µM. For the same compound, the IC50 in test [6] was above 10 µM; in test [3] it was 9.2 µM; at Angiopoietin-1 receptor it was 1.3 µM; in test [4], 3.4 µM.

Consider `CNc1nccc(Nc2ccc(-c3nc4ccccc4s3)cc2)n1`, for which the IC50 on Insulin receptor was 9.7 µM; against Aurora kinase A it was above 10 µM; against Aurora kinase B it was above 10 µM; in [1], above 10 µM; in [2] it was above 10 µM; in [3], 8.9 µM. Besides, in [4], half-maximal inhibition (IC50) was put at 6.9 µM.

As for `COc1cc(Nc2ncnc3ccsc23)ccc1-c1nc2ccccc2s1`, the IC50 (in [5]; at Insulin receptor; on Aurora kinase A; against Aurora kinase B; in test [1]; in test [2]) was above 10 µM each time. Besides, the IC50 (in test [6]; in [3]; on Angiopoietin-1 receptor; in test [4]) was above 10 µM throughout.

`c1ccc2sc(-c3ccc(Nc4ncnc5nc[nH]c45)cc3)nc2c1`: the IC50 was above 10 µM in test [5]; above 10 µM on Insulin receptor; above 10 µM on Aurora kinase A; above 10 µM at Aurora kinase B; 7.8 µM in [2]; above 10 µM in test [6]. Further, the IC50 in test [3] was above 10 µM.

On to `c1ccc2sc(-c3ccc(Nc4ncnc5[nH]ccc45)cc3)nc2c1`, for which the IC50 in [5] was 1.5 µM; on Insulin receptor, 6.95 µM; at Aurora kinase A it was 8 µM; on Aurora kinase B, above 10 µM; in test [1] it was 3.1 µM; in [2] it was 1.3 µM. Moreover, the IC50 is 1.5 µM in [6], 1.2 µM in [3], 1.9 µM on Angiopoietin-1 receptor and 2.1 µM in test [4].

On to `COc1cc2nc(Nc3cc(C)[nH]n3)nc(Nc3cccc(-c4nc5ccccc5s4)c3)c2cc1OC`, for which the IC50 against Aurora kinase A was 5.5 µM; against Aurora kinase B it was above 10 µM; on Angiopoietin-1 receptor, 4.4 µM.
